What was measured:
[1] = Liver microsomal stability, human; assay type: in vitro ADME; settings: 37° C., 4 μM compound, 30 minutes
Method: (§1) In vitro metabolism studies were done in mouse, rat, human, and dogs cells (TABLE 2).
(§2) In vitro liver microsomal studies were completed to measure the stability of the compounds against degradation in various species' liver microsomes.
(§3) Compound was incubated in hepatic microsomes over a 30-minute incubation period at 37° C. Incubations both with and without NADPH (2 mM) were performed in a 96-well plate format. The reaction was initiated with the addition of substrate and was terminated by protein precipitation. All incubations were performed using a final substrate concentration of 4 μM in 50 mM sodium phosphate buffer, pH 7.4. The final organic solvent content was 0.5% acetonitrile and 0.02% DMSO. The amount of enzyme present was fixed at 1.11 mg/mL protein irrespective of the species of microsomes used. Samples were analyzed by LC/MS-MS to determine the percent loss in the NAPDH incubations relative to the NADPH free incubations.

[2] = Liver microsomal stability, dog; assay type: in vitro ADME; settings: 37° C., 4 μM compound, 30 minutes
Method: as §1, §2, §3

[3] = Liver microsomal stability, mouse; assay type: in vitro ADME; settings: 37° C., 4 μM compound, 30 minutes
Method: as §1, §2, §3

[4] = Liver microsomal stability, rat; assay type: in vitro ADME; settings: 37° C., 4 μM compound, 30 minutes
Method: as §1, §2, §3

[5] = Pharmacokinetics after 10 mg/kg P.O. dose, mice; assay type: in vivo; settings: mouse, blood, po
From the text: Although these are different species, the numbers can still be compared.

Male Sprague-Dawley rats [6] = assay: Inverted screen test (muscle relaxation); assay type: in vivo; settings: for muscle relaxation / motor impairment in inverted screen: i.p. 30 minutes prior, diazepam 3, 10, 30 mg/kg, KRM-II-81 10, 30, 60 mg/kg, HZ-166 30 mg/kg
Method: (§4) Results were analyzed using ANOVA (Dunnett's test: *P<0.05).
The inverted screen test is used to measure whether or not a test compound induces muscle relaxation. When a test subject is placed on a wire screen which is then inverted, the reaction is to climb to the opposite side so they are no longer hanging upside down. If a compound promotes muscle relaxation, the test subjects will either fall off, or hang onto the screen without being able to climb to the opposite side.
Rats were placed onto the top of a wire screen, which was then inverted so that the rats were hanging upside down. […] Results were analyzed using ANOVA (Dunnett's test: *P<0.05).

Male CD-1 mice [7] = assay: Maximal electroshock (MES)-induced convulsion protection; assay type: in vivo; settings: i.p. 30 minutes prior to test
Method: Male CD-1 mice (n=10) were dosed i.p. 30 minutes prior to being tested. Results were analyzed using ANOVA (Dunnett's test versus vehicle: *P<0.05).
The maximal electroshock (MES) assay is designed to determine how well a test compound can prevent seizures induced by applying a voltage stimuli to a mouse.
Mice were subjected to electrical induced tonic seizures and examined for anticonvulsant effects 30 minutes after treatment. Mice were then given a 7 mA electroshock using a Wahlquist Model H for 0.2 seconds and observed for the presence or absence of seizure activity. Each mouse is tested only once and euthanized immediately following the test.

Male Sprague-Dawley rats [8] = assay: scMET-induced seizure protection, rats; assay type: in vivo; settings: pentylenetetrazole 35 mg/kg
Method: A 35 mg/kg subcutaneous dose of pentylenetetrazole was given and the percent outcome of seizure was recorded. Results were analyzed using ANOVA (Dunnett's test: *P<0.05).
Test subjects were given a test compound, followed by a 35 mg/kg dose of MET and observed for convulsions (FIG. 7).
as §4

Male Sprague-Dawley rats [9] = assay: PTZ-induced seizure threshold; assay type: in vivo; settings: test compound 3 to 60 mg/kg, diazepam 0.1 to 1 mg/kg i.p.
Method: as §4
After a pretreatment of test compound, MET was intravenously administered to a test subject until a convulsions were observed.
Each animal was used only once and was euthanized post testing. Results were analyzed using ANOVA (Dunnett's test: *P<0.05).

Sprague Dawley male rats = assay: Mechanical hyperalgesia (von Frey) in CFA-induced inflammatory pain rat model; assay type: in vivo; settings: cumulative i.p. dosing, 3 days after CFA
Method: Raw data (paw withdrawal threshold, expressed in g of von Frey filament) was converted to a maximal possible effect value according the following equation: % MPE=[(test threshold(g)−control threshold(g)/(pre-CFA threshold−control threshold)]×100.
Complete Freund's adjuvant (CFA) contains Mycobacterium butyricum, inducing inflammation and an increase in paw thickness. 0.1 mL of CFA was injected in the right hind paw of Sprague Dawley male rats under isoflurane anaesthesia.
Mechanical hyperalgesia. Mechanical hyperalgesia was measured 3 days after CFA treatment. Rats (n=6) were placed in elevated boxes with a mesh floor. Von Frey filaments (expressed in g) were applied perpendicularly to the hindpaws, starting with the lowest filament (1.4 g) then increased until hindpaw withdrawal was observed. After each measurement, rats received the next dose of drug (every 20 min) until the maximum threshold (26 g) was observed. For the antagonist study, rats were pretreated with the benzodiazepine site antagonist flumazenil (10 min) and then received the next dose of drug (every 20 min) until the pre-CFA threshold was observed.
Drugs. The following drugs were used: HZ166, KRM-II-18B, and KRM-II-81, and were dissolved in a mixture containing 20% Dimethyl sulfoxide (DMSO), 10% Emulphor-620 (Rhodia Inc.), and 70% of 0.9% saline. Flumazenil (purchased from Cayman Chemical Company, MI) was dissolved in a mixture containing 10% ethanol, 40% propylene glycol, and 50% sterile water. Midazolam (Akorn, Inc.) was dissolved in 0.9% saline. Doses were expressed as the weight of the drug in milligrams per kilogram of body weight and drugs were administered intraperitoneally.

Male CD-1 mice [10] = settings: previously shown; cited from earlier work
Male Sprague-Dawley rats [11] = settings: previously shown; species not stated; cited from earlier work
rhesus monkeys = settings: previously shown; cited from earlier work
Male Sprague-Dawley rats [12] = settings: has been shown; cited from earlier work
Male NIH Swiss mice = settings: previously shown; cited from earlier work
GABAA/α1 receptors = GABAA/α1 receptors (Homo sapiens, UniProt P14867+P18507); settings: as disclosed in Huang, et al., J. Med. Chem. 2000; cited from earlier work
GABAA/α2 = GABAA/α2 (Homo sapiens, UniProt P18507+P47869); settings: as disclosed in Huang, et al., J. Med. Chem. 2000; cited from earlier work
GABAA/α3 = GABAA/α3 (Homo sapiens, UniProt P18507+P34903); settings: as disclosed in Huang, et al., J. Med. Chem. 2000; cited from earlier work
GABAA/α5 receptors = GABAA/α5 receptors (Homo sapiens, UniProt P18507+P31644); settings: as disclosed in Huang, et al., J. Med. Chem. 2000; cited from earlier work
Sequence of GABAA/α5 receptors (P31644 32-462): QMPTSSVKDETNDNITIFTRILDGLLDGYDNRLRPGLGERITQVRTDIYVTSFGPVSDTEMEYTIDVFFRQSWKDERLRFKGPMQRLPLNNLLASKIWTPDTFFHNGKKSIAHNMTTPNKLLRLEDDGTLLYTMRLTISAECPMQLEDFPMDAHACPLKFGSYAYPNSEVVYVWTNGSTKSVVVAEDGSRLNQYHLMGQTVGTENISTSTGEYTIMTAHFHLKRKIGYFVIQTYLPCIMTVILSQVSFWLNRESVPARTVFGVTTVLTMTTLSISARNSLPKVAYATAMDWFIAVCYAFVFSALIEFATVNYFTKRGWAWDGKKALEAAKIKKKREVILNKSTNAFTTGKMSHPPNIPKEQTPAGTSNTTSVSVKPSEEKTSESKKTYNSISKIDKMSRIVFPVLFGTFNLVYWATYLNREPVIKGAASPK
Sequence of GABAA/α5 receptors (P28472 26-473 partner): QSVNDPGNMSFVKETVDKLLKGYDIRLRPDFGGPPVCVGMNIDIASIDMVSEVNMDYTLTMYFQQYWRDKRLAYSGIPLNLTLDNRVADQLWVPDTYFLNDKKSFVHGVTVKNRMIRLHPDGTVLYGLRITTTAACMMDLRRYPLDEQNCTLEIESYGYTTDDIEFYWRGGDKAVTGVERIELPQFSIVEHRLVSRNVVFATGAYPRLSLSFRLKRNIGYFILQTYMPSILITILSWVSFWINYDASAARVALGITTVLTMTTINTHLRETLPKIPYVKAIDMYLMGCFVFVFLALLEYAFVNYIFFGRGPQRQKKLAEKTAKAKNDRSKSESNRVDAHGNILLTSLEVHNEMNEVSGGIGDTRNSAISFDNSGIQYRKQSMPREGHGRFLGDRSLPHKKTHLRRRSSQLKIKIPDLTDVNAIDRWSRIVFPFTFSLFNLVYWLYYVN
Sequence of GABAA/α5 receptors (P18507 40-475): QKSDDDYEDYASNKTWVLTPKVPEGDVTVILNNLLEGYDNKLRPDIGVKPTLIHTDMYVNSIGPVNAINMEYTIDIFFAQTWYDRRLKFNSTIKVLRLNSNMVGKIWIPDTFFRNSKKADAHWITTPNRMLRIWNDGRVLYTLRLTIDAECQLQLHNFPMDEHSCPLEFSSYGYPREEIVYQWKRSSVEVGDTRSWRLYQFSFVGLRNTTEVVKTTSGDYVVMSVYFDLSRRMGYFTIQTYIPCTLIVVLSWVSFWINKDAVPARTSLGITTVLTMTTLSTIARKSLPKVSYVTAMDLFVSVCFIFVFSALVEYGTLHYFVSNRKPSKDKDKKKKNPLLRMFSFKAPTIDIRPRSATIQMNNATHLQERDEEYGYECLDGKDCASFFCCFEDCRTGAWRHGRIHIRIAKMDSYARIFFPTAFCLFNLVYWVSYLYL

Sequence of GABAA/α3 (P34903 29-492): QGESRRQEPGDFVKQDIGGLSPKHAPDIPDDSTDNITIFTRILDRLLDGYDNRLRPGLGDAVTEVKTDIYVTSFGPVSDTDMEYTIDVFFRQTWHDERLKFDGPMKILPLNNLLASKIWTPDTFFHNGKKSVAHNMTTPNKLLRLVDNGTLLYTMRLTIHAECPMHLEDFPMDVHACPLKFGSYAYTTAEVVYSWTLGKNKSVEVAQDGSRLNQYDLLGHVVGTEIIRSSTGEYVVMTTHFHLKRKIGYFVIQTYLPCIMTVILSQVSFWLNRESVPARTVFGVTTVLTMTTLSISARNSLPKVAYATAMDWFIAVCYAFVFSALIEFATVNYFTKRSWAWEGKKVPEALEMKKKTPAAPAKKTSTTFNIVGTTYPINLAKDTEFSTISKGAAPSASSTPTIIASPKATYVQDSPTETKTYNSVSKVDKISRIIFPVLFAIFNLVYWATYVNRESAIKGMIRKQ
Sequence of GABAA/α3 (P28472 26-473 partner): as the sequence (P28472 26-473 partner) above
Sequence of GABAA/α3 (P18507 40-475): as the sequence (P18507 40-475) above
Sequence of GABAA/α2 (P47869 29-451): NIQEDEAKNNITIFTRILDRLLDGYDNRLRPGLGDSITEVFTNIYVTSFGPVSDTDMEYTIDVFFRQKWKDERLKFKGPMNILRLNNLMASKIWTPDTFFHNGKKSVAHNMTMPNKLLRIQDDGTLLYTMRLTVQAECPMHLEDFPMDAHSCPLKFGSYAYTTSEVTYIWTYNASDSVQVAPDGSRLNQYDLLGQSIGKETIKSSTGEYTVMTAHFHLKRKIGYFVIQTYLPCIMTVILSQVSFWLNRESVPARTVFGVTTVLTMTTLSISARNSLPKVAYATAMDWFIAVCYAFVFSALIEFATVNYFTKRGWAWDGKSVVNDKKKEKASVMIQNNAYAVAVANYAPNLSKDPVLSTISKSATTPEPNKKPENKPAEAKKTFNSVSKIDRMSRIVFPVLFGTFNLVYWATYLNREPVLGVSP
Sequence of GABAA/α2 (P28472 26-473 partner): as the sequence (P28472 26-473 partner) above
Sequence of GABAA/α2 (P18507 40-475): as the sequence (P18507 40-475) above
Sequence of GABAA/α1 receptors (P14867 28-456): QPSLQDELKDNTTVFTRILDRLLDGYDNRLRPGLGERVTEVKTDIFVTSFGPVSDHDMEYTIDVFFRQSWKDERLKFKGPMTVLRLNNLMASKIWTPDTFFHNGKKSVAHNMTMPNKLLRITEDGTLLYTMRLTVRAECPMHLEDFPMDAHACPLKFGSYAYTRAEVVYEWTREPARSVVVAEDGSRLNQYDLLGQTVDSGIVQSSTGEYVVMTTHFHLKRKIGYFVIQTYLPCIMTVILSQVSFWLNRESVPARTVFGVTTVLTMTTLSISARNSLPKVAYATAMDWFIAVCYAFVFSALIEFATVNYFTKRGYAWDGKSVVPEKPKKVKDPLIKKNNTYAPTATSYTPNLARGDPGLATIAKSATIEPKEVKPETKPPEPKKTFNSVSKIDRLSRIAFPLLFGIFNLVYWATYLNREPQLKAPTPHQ
Sequence of GABAA/α1 receptors (P28472 26-473 partner): as the sequence (P28472 26-473 partner) above
Sequence of GABAA/α1 receptors (P18507 40-475): as the sequence (P18507 40-475) above

## C#Cc1ccc2c(c1)C(c1ccccn1)=NCc1c(C(=O)OCC)ncn1-2 [HZ-166, Ethyl-8-ethynyl-6-(pyridin-2-yl)-4H-benzo[f]imidazo[1,5-a][1,4]diazepine-3-carboxylate]
[1]
  Human Liver microsome stability (reported in % remaining): 80 % remaining
[2]
  Dog Liver microsome stability (reported in % remaining): 97 % remaining
[3]
  Mouse Liver microsome stability (reported in % remaining): 54 % remaining
[4]
  Rat Liver microsome stability (reported in % remaining): 50 % remaining
[5]
  Tmax: 5.58 h
[5]; read-out: Cmax (highest concentration found in blood)
  Cmax: 4.11 ng/mL
Male Sprague-Dawley rats [6]
  muscle relaxation / motor impairment in inverted screen: Neither HZ-166 nor KRM-II-81 induced significant muscle relaxation
Male Sprague-Dawley rats [6]; i.p., inverted screen
  dose at which signs of muscle relaxation began to appear: 30 mg/kg
Male CD-1 mice [7]
  protection against MES-induced seizures: did not
Male Sprague-Dawley rats [8]; 30 mg/kg i.p.
  effect against scMET seizures at 30 mg/kg: little effect
Male Sprague-Dawley rats [9]
  effect on seizure threshold to PTZ: little protection
Sprague Dawley male rats
  mechanical hyperalgesia in CFA-induced inflammatory pain: dose-dependently attenuated mechanical hyperalgesia
Male CD-1 mice [10]
  effectiveness in MES assay: effective in this assay
Male Sprague-Dawley rats [11]
  protection against scMET-induced seizures: giving protection against scMET-induced seizures
Rhesus monkeys
  effectiveness in conflict procedure: effective in rhesus monkeys
Male Sprague-Dawley rats [12]
  performance in von Frey filament assay: perform well in this assay
Male NIH Swiss mice
  doses with no ataxic complications: over 100 mg/kg

## C#Cc1ccc2c(c1)C(c1ccccc1)=NCC(=O)N2C [QH-ii-066]
GABAA/α1 receptors
  Ki: > 70 nM
GABAA/α2
  Ki: < 50 nM
GABAA/α3
  Ki: < 50 nM
GABAA/α5 receptors
  Ki: < 10 nM

## CN1C(=O)CN=C(c2ccccc2)c2cc(Cl)ccc21 [diazepam, reference compound]
Male Sprague-Dawley rats [6]
  muscle relaxation / motor impairment in inverted screen: produced full motor impairment
Male CD-1 mice [7]
  protection against MES-induced seizures: fully protected against seizure induction
Male Sprague-Dawley rats [8]; i.p. 30 minutes prior
  dose achieving significant protection against scMET seizures: 10 mg/kg
Male Sprague-Dawley rats [9]
  effect on seizure threshold to PTZ: significantly increased the seizure threshold to PTZ

— patent publication US10259815B2, “Gabaergic ligands and their uses” (UWM Research Foundation, Inc., priority 2015, dated 2019)
